Reference: patent US20120045515A1, “HOLLOW SILICA PARTICLE WITH A POLYMER THEREON” (priority 2009, published 2012)
≈ marks a conversion by molar mass, not a printed value.

Columns and labels:
MCF-7 cells = assay: In vitro cytotoxicity, MTT assay, in MCF-7 cells; assay type: cell-based; conditions: Homo sapiens, MCF7, incubation for 72 h
Procedure: (§1) Cytotoxicity of pure PTX, PEG-g-hollow silica vesicles, and PTX loaded PEG-g-hollow silica vesicles was evaluated in MCF-7 cell lines and U-87 MG cell lines. Viability of the cells was assessed by the standard thiazolyl blue [3-(4,5-dimethyliazolyl-2)-2,5-diphenyl tetrazolium bromide] (MTT) assay. This colorimetric assay allows determination of the number of viable cells through the metabolic activity of the cells.
(§2) The cancer cells were seeded in 96-well plates with a seeding density 10,000 cells/well and were cultured in DMEM supplemented with 10% FBS and 1% penicillin/streptomycin solution in an incubator at 37° C., 5% CO2, and 95% relative humidity. The cells were allowed to adhere to the well bottom upon overnight incubation. Then the medium was replaced with the sample solutions of different concentrations. Meanwhile, wells containing only cell culture medium were prepared as untreated controls. At the predetermined time, the medium containing samples was aspirated and the wells were washed with 1×PBS solution for two times to removed non-internalized sample. […] The absorbance intensity of the solution was then quantified spectrophotometrically using a microplate reader (TECAN SpectraFluor Plus) at 570 nm. […]
(§3) where Abssample was the absorbance for the cells treated with the samples, while Abscontrol was the absorbance for the untreated control cells. […]

U-87 MG cells = assay: In vitro cytotoxicity, MTT assay, in U-87 MG cells; assay type: cell-based; conditions: Homo sapiens, incubation for 72 h
Procedure: as §1, §2, §3

[1] = Release profile of paclitaxel by dialysis in 1×PBS buffer at 37° C., HPLC; assay type: physicochemical; conditions: after 330 h, 1×PBS buffer solution
Procedure: In a typical process, 0.7 mg of paclitaxel loaded PEG-graft-hollow silica was dispersed in 3 ml of 1×PBS buffer solution under ultrasonication for 2 h at a temperature below 30° C. The solution was transferred into a dialysis tube with a molecular weight cutting of 10 000. The dialysis tube was placed into a conical flask containing 40 ml of 1×PBS buffer solution. The conical flask was kept in a water bath at 37° C. and was stirred at 100 rpm. The outside buffer solution was exchanged with a fresh buffer solution at a predetermined time interval to maintain a sink condition. The released paclitaxel was extracted from the drawn buffer solution using 4 ml of dichloromethane. After shaking and setting down, the dichloromethane solution was collected. After chloromethane was evaporated at room temperature, the solid reconstituted in 2 mL of acetonitrile/water (50:50; v/v) for HPLC measurement to determine PTX amounts.
To measure the release profile of free PTX, 2 mg of PTX was firstly dissolved in 4 mL methanol to get a solution of a concentration of 0.5 mg/mL. After ultrasonication for 40 min, 0.4 mL of the solution was taken out and was dried by evaporating methanol. The solid was dissolved in 3 mL of 1×PBS solution (pH 7.4), and the release profile was monitored.

[2] = Saturated solubility of PTX in methanol; assay type: physicochemical; conditions: organic solvent or mixture, saturated solution in methanol

PTX released [1]: 5% | solubility [2]: 50 mg/mL (≈ 58600 µM)
SMILES: CC(=O)O[C@H]1C(=O)[C@@]2(C)[C@H]([C@H](OC(=O)c3ccccc3)[C@]3(O)C[C@H](OC(=O)[C@H](O)[C@@H](NC(=O)c4ccccc4)c4ccccc4)C(C)=C1C3(C)C)[C@]1(OC(C)=O)CO[C@@H]1C[C@@H]2O [free PTX, paclitaxel]
IC50 (MCF-7 cells): 0.1 µg/mL (≈ 0.117 µM) | IC50 (U-87 MG cells): 0.073 µg/mL (≈ 0.0855 µM)
